Patent US9090600B2, “Fungicidal 4-substituted-3-{phenyl[(heterocyclylmethoxy)imino]methyl}-1,2,4-oxadizol-5(4H)-one derivatives” (BAYER INTELLECTUAL PROPERTY GMBH, priority 2011, dated 2015)
Like-named read-outs stand apart in the source and are kept apart here. Marks after values point to notes of the source that are not given here.

Key:
[1] = Measurement of log P values by HPLC on reversed phase columns (EEC directive 79/831 Annex V.A8); conditions: for chromatographic logP: pH 2.7; for LogP: method [a], HPLC on reversed phase columns
Phytophthora infestans [2] = assay type: in vivo; conditions: tomato, preventive spray, 100 ppm of active ingredient, evaluated 7 days after inoculation
Plasmopara viticola = assay: Plasmopara test (grapevines)/preventive; assay type: in vivo; conditions: preventive spray, 10 ppm of active ingredient, evaluated 6 days after inoculation
Protocol: Solvent: 24.5 parts by weight of acetone • 24.5 parts by weight of dimethylacetamide
Emulsifier: 1 part by weight of alkylaryl polyglycol ether
To produce a suitable preparation of active compound, 1 part by weight of active compound is mixed with the stated amounts of solvent and emulsifier, and the concentrate is diluted with water to the desired concentration.
To test for preventive activity, young plants are sprayed with the preparation of active compound at the stated rate of application. After the spray coating has dried on, the plants are inoculated with an aqueous spore suspension of Plasmopara viticola and then remain for 1 day in an incubation cabinet at approximately 20° C. and a relative atmospheric humidity of 100%. The plant is subsequently placed for 4 days in a greenhouse at approximately 21° C. and a relative atmospheric humidity of approximately 90%. The plants are then misted and placed for 1 day in an incubation cabinet.
The test is evaluated 6 days after the inoculation. 0% means an efficacy which corresponds to that of the untreated control, while an efficacy of 100% means that no disease is observed.

Phytophthora infestans [3] = assay type: in vivo; conditions: tomato plants, spray, 500 ppm, grading 5 days after contamination
[4] = pH 2.7
[5] = test system: Mycosphaerella graminicola; assay: In vivo test on Mycosphaerella graminicola (wheat leaf spot); conditions: wheat plants, spray, 500 ppm, grading 21 to 28 days after contamination
Protocol: The active ingredients tested are prepared by homogenization in a mixture of acetone/tween/DMSO, then diluted with water to obtain the desired active material concentration.
Wheat plants (Scipion variety), sown on a 50/50 peat soil-pozzolana substrate in starter cups and grown at 22° C. (12 h)/20° C. (12 h), are treated at the 1-leaf stage (10 cm tall) by spraying with the aqueous suspension described above. Plants, used as controls, are treated with an aqueous solution not containing the active material.
After 24 hours, the plants are contaminated by spraying them with an aqueous suspension of cryopreserved Mycosphaerella graminicola spores (500.000 spores per ml). The contaminated wheat plants are incubated for 72 hours at 18° C. and at 100% relative humidity, and then for 21 to 28 days at 90% relative humidity.
Grading (% of efficacy) is carried out 21 to 28 days after the contamination, in comparison with the control plants.
(§1) Under these conditions, good (at least 70%) or total protection is observed at a dose of 500 ppm with the following compounds: […]

Puccinia recondita = assay: In vivo test on Puccinia recondita (brown rust); conditions: wheat plants, spray, 500 ppm, grading 10 days after contamination
Protocol: The active ingredients tested are prepared by homogenization in a mixture of acetone/tween/DMSO, then diluted with water to obtain the desired active material.
Wheat plants (Scipion variety) sown on 50/50 peat soil-pozzolana substrate in starter cups and grown at 22° C. (12 h)/20° C. (12 h), are treated at the 1-leaf stage (10 cm tall) by spraying with the aqueous suspension described above.
Plants, used as controls, are treated with an aqueous solution not containing the active material. After 24 hours, the plants are contaminated by spraying the leaves with an aqueous suspension of Puccinia recondite spores (100.000 spores per ml). The spores are collected from a 10-day-old contaminated wheat and are suspended in water containing 2.5 ml/l of tween 80 10%. The contaminated wheat plants are incubated for 24 hours at 20° C. and at 100% relative humidity, and then for 10 days at 20° C. and at 70% relative humidity. Grading is carried out 10 days after the contamination, in comparison with the control plants.
as §1

Row | SMILES | Eff. % (Phytophthora infestans [3]) [%] | LogP [4] | Eff. % [5] [%] | also measured
1 | Cn1c(/C(=N\OCc2cccc(N)n2)c2ccccc2)noc1=O [Example 1, 3-[(Z)-{[(6-aminopyridin-2-yl)methoxy]imino}(phenyl)methyl]-4-methyl-1,2,4-oxadiazol-5(4H)-one] |  |  |  | chromatographic logP [1]: 1.14
2 | Cn1c(/C(=N\OCc2csc(N)n2)c2ccccc2)noc1=O [Example 4, 3-[(Z)-{[(2-amino-1,3-thiazol-4-yl)methoxy]imino}(phenyl)methyl]-4-methyl-1,2,4-oxadiazol-5(4H)-one] |  |  |  | chromatographic logP [1]: 1.54
3 | C=CCCCOC(=O)Nc1cccc(CO/N=C(/c2ccccc2)c2noc(=O)n2C)n1 [Example 6] |  |  |  | Eff. % (Phytophthora infestans [2]): 98%; LogP [1]: 4.06 [a]; Eff. % (Plasmopara viticola): 100%
4 | Nc1cccc(CO/N=C(/c2ccccc2)c2noc(=O)[nH]2)n1 [Example 23, 3-[(Z)-{[(6-aminopyridin-2-yl)methoxy]imino}(phenyl)methyl]-1,2,4-oxadiazol-5(4H)-one] |  |  |  | chromatographic logP [1]: 1.36
5 | Nc1nc(CO/N=C(/c2ccccc2)c2noc(=O)[nH]2)cs1 [Example 24, 3-[(Z)-{[(2-amino-1,3-thiazol-4-yl)methoxy]imino}(phenyl)methyl]-1,2,4-oxadiazol-5(4H)-one] |  |  |  | chromatographic logP [1]: 1.58
6 | Cn1c(/C(=N/OCc2cccc(N)n2)c2ccccc2)noc1=O [Example 25, 3-[(E)-{[(6-aminopyridin-2-yl)methoxy]imino}(phenyl)methyl]-4-methyl-1,2,4-oxadiazol-5(4H)-one] |  |  |  | chromatographic logP [1]: 1.14
7 | Cc1cccc(/C(=N/OCc2cccc(N)n2)c2noc(=O)n2C)c1 [Example 30] | 100 | 1.45 [a] | 86 | 
8 | C#CCCCCC(=O)Nc1cccc(CO/N=C(/c2ccccc2)c2noc(=O)n2C)n1 [Example 37] | 100 |  |  | LogP [1]: 3.37 [a]; Eff. % (Plasmopara viticola): 80%
9 | Cn1c(/C(=N\OCc2cccc(NC(=O)C3(C)CCCCC3)n2)c2ccccc2)noc1=O [Example 40] | 100 |  |  | LogP [1]: 4.36 [a]
10 | COc1cccc(C(=O)Nc2cccc(CO/N=C(/c3ccccc3)c3noc(=O)n3C)n2)c1 [Example 44] | 100 |  |  | LogP [1]: 3.62 [a]; Eff. % (Plasmopara viticola): 98%
11 | Cn1c(/C(=N\OCc2cccc(NC(=O)C(c3ccccc3)c3ccccc3)n2)c2ccccc2)noc1=O [Example 46] |  |  |  | LogP [1]: 4.48 [a]
12 | Cn1c(/C(=N\OCc2csc(NC(=O)c3ccccc3Cl)n2)c2ccccc2)noc1=O [Example 57] | 85 | 3.46 [a] | 79 | 
13 | Cn1c(/C(=N\OCc2cccc(NC(=O)CCC3CCCCC3)n2)c2ccccc2)noc1=O [Example 77] | 100 | 4.73 [a] | 71 | 
14 | COc1cccc(/C(=N/OCc2cccc(N)n2)c2noc(=O)n2C)c1 [Example 108] | 100 | 1.32 [a] | 71 | 
15 | CCC(C)(C)OC(=O)Nc1cccc(CO/N=C(/c2ccccc2)c2noc(=O)n2C)n1 [Example 120] | 100 | 1.99 [a] |  | Eff. % (Puccinia recondita): 98%; Eff. % (Plasmopara viticola): 84%
16 | CCn1c(/C(=N\OCc2cccc(NC(=O)C3COc4ccccc4O3)n2)c2ccccc2)noc1=O (stereo not drawn) [Example 130] | 100 | 4.14 [a] | 86 | 
17 | COc1cccc(CCOC(=O)Nc2cccc(CO/N=C(/c3ccccc3)c3noc(=O)n3C)n2)c1 [Example 151] | 85 | 4.11 [a] | 92 | 
18 | Cn1c(/C(=N\OCc2csc(NC(=O)c3ccccc3I)n2)c2ccccc2)noc1=O [Example 158] | 85 | 3.6 [a] | 80 | 

Row | SMILES | Eff. % (Phytophthora infestans [3]) [%] | LogP [4] | Eff. % [5] [%] | also measured
19 | CCCC(C)C(=O)Nc1cccc(CO/N=C(/c2ccccc2)c2noc(=O)n2CC)n1 (stereo not drawn) [Example 172] | 100 | 4.06 [a] | 86 | Eff. % (Puccinia recondita): 89%
20 | Cn1c(/C(=N\OCc2cccc(NC(=O)CC(C)(C)C)n2)c2ccccc2)noc1=O [Example 173] | 100 | 3.78 [a] | 73 | Eff. % (Puccinia recondita): 89%; Eff. % (Plasmopara viticola): 86%
21 | C#CCCC(C)OC(=O)Nc1cccc(CO/N=C(/c2ccccc2)c2noc(=O)n2CC)n1 (stereo not drawn) [Example 207] | 100 | 4.04 [a] | 79 | 
22 | Cc1cccc(/C(=N/OCc2cccc(NC(=O)OC(C)CC(C)C)n2)c2noc(=O)n2C)c1 (stereo not drawn) [Example 223] |  | 5.05 [a] | 80 | 
23 | CCCC(C)C(=O)Nc1cccc(CON=C(c2ccccc2)c2noc(=O)n2C)n1 (stereo not drawn) [Example 248] | 100 | 3.8 [a] | 86 | Eff. % (Plasmopara viticola): 85%
24 | Cn1c(/C(=N\OCc2cccc(NCCC3CCCCC3)n2)c2ccccc2)noc1=O [Example 253, 3-[(Z)-[({6-[(2-cyclohexylethyl)amino]pyridin-2-yl}methoxy)imino](phenyl)methyl]-4-methyl-1,2,4-oxadiazol-5(4H)-one] |  |  |  | chromatographic logP [1]: 2.96
25 | CCn1c(C(=NOCc2cccc(NC(=O)OCCc3ccccc3)n2)c2ccccc2)noc1=O [Example 270] | 100 | 4.41 [a] | 86 | 
26 | Cn1c(/C(=N\OCc2cccc(N(CCC3CCCCC3)C(=O)OC(C)(C)C)n2)c2ccccc2)noc1=O [Example 279, tert-butyl (2-cyclohexylethyl){6-[({[(Z)-(4-methyl-5-oxo-4,5-dihydro-1,2,4-oxadiazol-3-yl)(phenyl)methylene]amino}oxy)methyl]pyridin-2-yl}carbamate] |  |  |  | chromatographic logP [1]: 6.73
27 | CC(C)C(C)OC(=O)Nc1cccc(CO/N=C(/c2ccccc2)c2noc(=O)n2C)n1 (stereo not drawn) [Example 292] | 99 | 4.27 [a] |  | Eff. % (Puccinia recondita): 75%; Eff. % (Plasmopara viticola): 90%
28 | C#CC(C)(C)OC(=O)Nc1cccc(CO/N=C(/c2ccccc2)c2noc(=O)n2C)n1 [Example 317] | 98 | 3.6 [a] |  | Eff. % (Puccinia recondita): 81%; Eff. % (Plasmopara viticola): 91%
29 | COc1cccc(/C(=N/OCc2cccc(NC(=O)OCCc3ccccc3)n2)c2noc(=O)n2C)c1 [Example 325] | 99 | 4.19 [a] |  | Eff. % (Puccinia recondita): 75%; Eff. % (Plasmopara viticola): 84%
30 | Cn1c(/C(=N\OCc2cccc(N(C(=O)Oc3ccc(F)cc3)C(=O)Oc3ccc(F)cc3)n2)c2ccccc2)noc1=O [Example 330] |  | 4.2 [a] | 83 | 
31 | Cn1c(/C(=N\OCc2cccc(NC(=O)Cc3ccccc3)n2)c2ccccc2)noc1=O [Example 341] | 100 | 3.53 [a] | 70 | 
32 | CCCCC(=O)Nc1cccc(CO/N=C(/c2cccc(C)c2)c2noc(=O)n2C)n1 [Example 384] | 100 | 3.83 [a] | 70 | Eff. % (Puccinia recondita): 79%
33 | C#CCCC(C)OC(=O)Nc1cccc(CO/N=C(/c2ccccc2)c2noc(=O)n2C)n1 (stereo not drawn) [Example 395] | 99 | 3.8 [a] |  | Eff. % (Puccinia recondita): 72%; Eff. % (Plasmopara viticola): 93%
34 | NC(=N\O)/C(=N\OCc1csc(N)n1)c1ccccc1 [Example V-2, (1Z,2Z)-2-{[(2-amino-1,3-thiazol-4-yl)methoxy]imino}-N′-hydroxy-2-phenylethanimidamide] |  |  |  | chromatographic logP [1]: 0.43
35 | N/C(=N\O)C(=NOCc1cccc(N)n1)c1ccccc1 [Example V-3, (Z)-2-{[(6-aminopyridin-2-yl)methoxy]imino}-N′-hydroxy-2-phenylethanimidamide] |  |  |  | chromatographic logP [1]: 0.41
36 | Cn1c(C(=O)c2ccccc2)noc1=O [VII-1, 3-benzoyl-4-methyl-1,2,4-oxadiazol-5(4H)-one] |  |  |  | chromatographic logP [1]: 3.21
